Data set [1] in a line: Elimination half life in mouse at 10 mg/kg, po after 24 hrs. In kind it is ADME, organism-based. Also on record: dose 10 mg/kg, route oral. As to conditions: in vivo, read-out: beta t1/2 (converted).
For data set [2], the system named is A2780. Briefly: Reduction in CDC25C level in human A2780 cells at 1 uM after 24 hrs by Western blot analysis. Type of data set: functional, cell-based.
A short description of data set [3]: Cmax in mouse at 10 mg/kg, po after 24 hrs. In kind it is ADME, organism-based. Also on record: dose 10 mg/kg, route oral. Particulars: in vivo.
Data set [4] relates to MCF7. Briefly: Selectivity ratio of IC50 for human WI38 cells to IC50 for ER positive human MCF7 cells. In kind it is functional.
Data set [5] in a line: Oral bioavailability (0 to infinity) in mouse at 40 mg/kg after 24 hrs. As to conditions: in vivo. In kind it is ADME, organism-based.
Data set [6] concerns HeLa. The experiment in a line: Ratio of ON01910 IC50 to compound IC50 for human HeLa cells. Type of data set: functional.
Data set [7] deals with A2780. The experiment in a line: Reduction in Mcl1 level in human A2780 cells at 0.03 uM after 24 hrs by Western blot analysis. In kind it is functional, cell-based. For orientation: A western blot detects proteins with antibodies after separation by electrophoresis.
Data set [8] in a line: Elimination half life in mouse at 40 mg/kg, po after 24 hrs. In kind it is ADME, organism-based. As to conditions: in vivo, read-out: beta t1/2 (converted). More on the design: dose 40 mg/kg, route oral.
In data set [9] the test system is A2780. The experiment in a line: Reduction in CDC25C level in human A2780 cells at 0.03 uM after 24 hrs by Western blot analysis. Type of data set: functional, cell-based.
In data set [10] the test system is A2780. The experiment in a line: Selectivity ratio of IC50 for human WI38 cells to IC50 for human A2780 cells. Type of data set: functional.
For data set [11], the system named is HeLa. The experiment in a line: Selectivity ratio of IC50 for human WI38 cells to IC50 for human HeLa cells. In kind it is functional.
The test system of data set [12] is MCF7. Briefly: Ratio of ON01910 IC50 to compound IC50 for ER positive human MCF7 cells. In kind it is functional.
Data set [13] concerns A2780. Briefly: Antitumor activity against human A2780 cells xenografted in mouse assessed as increase in life span at 50 mg/kg, po administered every second day for 2 weeks. In kind it is functional.
The subject of another data set is DU-145. Briefly: Ratio of ON01910 IC50 to compound IC50 for AR negative human DU145 cells. Type of data set: functional.

Calls of active or inactive are those of the source. No cut-off for these calls is given here.

A word on the Cmax: it is the highest concentration seen after dosing. In the case of `COc1cc(OC)c(/C=C/S(=O)(=O)Cc2ccc(OC)c(NS(C)(=O)=O)n2)c(OC)c1`, the half-life in [1] was 4.6 h. Besides, in the data set on A2780 [2], the inhibition result is “Active”. In data set [3], this molecule returned a Cmax of 2100 nM.

Usually bioavailability stands for the share of a dose that reaches the circulation, judged against a reference dose that is usually intravenous. As to `COc1cc(OC)c(/C=C/S(=O)(=O)Cc2ccc(OC)c(N)n2)c(OC)c1`, the “Ratio IC50” value with MCF7 [4] is reported as more than 1400; in the data set on HeLa [6] it was 10; with A2780 [10], more than 1400; with HeLa [11], more than 1400; in the data set on MCF7 [12], 10; in the data set with DU-145, 10. This molecule registered a bioavailability in data set [5] of 68%. The inhibition result in the data set with A2780 [7] and with A2780 [9] was “Active” throughout. Moreover, in data set [8], the half-life was 77.1 h. In the data set with A2780 [13], the Activity turned out to be 80%.

Values taken from ChEMBL document CHEMBL3259791, “Discovery of (E)-3-((styrylsulfonyl)methyl)pyridine and (E)-2-((styrylsulfonyl)methyl)pyridine derivatives as anticancer agents: synthesis, structure-activity relationships, and biological activities” (J Med Chem, 2014).
